We go through six compounds from patent publication US6683092B1, “[3-(C5-14ALKYL-2-OXO-1,2,3,4-TETRAHYDRO-QUINOLIN-6-YL)-3-OXO-PROPENYL]-PHENYL AND [3-(C5-14ALKYL-2-OXO-1,2,3,4- TETRAHYDRO-QUINOLIN-6-YL)-3-OXO-PROPENYL]-HETEROARYL DERIVATIVES HAVING ANTI-TUMOR ACTIVITY” (Allergan, Inc., priority 2003, dated 2004).

Assay [1] concerns breast cancer cell line MCF-7. In words: Colony (clonogenic) assay, serum-free, MCF-7. It counts as cell-based. As to conditions: 14 days, concentration giving 50% inhibition of cell growth. The procedure:
(§1) Specifically, the following assay procedure was employed to test certain exemplary compounds of the invention in the breast cancer cell line known in the art as MCF-7 and in the prostrate cancer cell line known in the art as LNCaP.
(§2) Set 4 mL cultures in 60 mm petri dishes
(medium for MCF-7—DMEN with L-glutamine & without glucose)
(§3) Seeding density: LNCaP serum-free 1200 cells/dish; MCF-7 serum-free 1400 cells/dish
(§4) Add compound immediately after setting cultures and then change the media and re-feed with compound at day 2 (or day 3 for assays set on Fridays).
(§5) Incubated for 14 days (serum free lines)
(§6) 2. fix with 10% formal saline for ˜30 mins
(§7) 3. remove formal saline and wash with 2-3 mLs PBS
(§8) 4. stain with 1% methylene blue in PBS, leave this on for ˜1 hr
(§9) 5. remove stain and wash off in tap water
(§10) 6. dry overnight and count the colonies
(§11) The results obtained in these assays are shown in Table 1, expressed in EC50 numbers, where EC50 is the concentration (expressed as nanomolar) of the compound that results in 50% inhibition of the growth of the cells.

Assay [2] concerns prostate cancer cell line LNCaP. The assay is described as follows: Colony (clonogenic) assay, serum-free, LNCaP. Format: cell-based. As to conditions: 14 days, concentration giving 50% inhibition of cell growth; for EC50: Homo sapiens, LNCaP, 336 h. The protocol:
as §1, §2
(medium for LNCaP—[…] with ITS & linoleic acid)
as §3, §4, §5, §6, §7, §8, §9, §10, §11

“Also recorded” adds a separate entry of the source.

As usually defined, the EC50 is the midpoint of the concentration-response curve. Low values mean a more potent agent, high ones a less potent agent. With `CCCCCCCCCN1C(=O)CC(C)(C)c2cc(C(=O)C=Cc3ccc(C(=O)O)cc3)ccc21` [Compound 8d, 4-[3-(1-Nonyl-4,4-dimethyl-2-oxo-1,2,3,4-tetrahydro-quinolin-6-yl)-3-oxo-propenyl]-benzoic acid], the EC50 in assay [1] (Homo sapiens, MCF7, 336 h) turned out to be 3 nM; in assay [2], 155 nM.

In the case of `CCCCCCCCN1C(=O)CC(C)(C)c2cc(C(=O)C=Cc3ccc(C(=O)O)cc3)ccc21` [Compound 8c, 4-[3-(1-Octyl-4,4-dimethyl-2-oxo-1,2,3,4-tetrahydro-quinolin-6-yl)-3-oxo-propenyl]-benzoic acid], the EC50 in assay [1] (Homo sapiens, MCF7, 336 h) was found to be 30 nM; in assay [2] it was 52 nM.

For `CCCCCCN1C(=O)CC(C)(C)c2cc(C(=O)C=Cc3ccc(C(=O)O)cc3)ccc21` [Compound 8a, 4-[3-(1-Hexyl-4,4-dimethyl-2-oxo-1,2,3,4-tetrahydro-quinolin-6-yl)-3-oxo-propenyl]-benzoic acid], the EC50 in assay [1] (Homo sapiens, MCF7, 336 h) was 9 nM; in assay [2], 90 nM.

Consider `CCCCCCCN1C(=O)CC(C)(C)c2cc(C(=O)C=Cc3ccc(C(=O)O)cc3)ccc21` [Compound 8b, 4-[3-(1-Heptyl-4,4-dimethyl-2-oxo-1,2,3,4-tetrahydro-quinolin-6-yl)-3-oxo-propenyl]-benzoic acid], for which the concentration for a half-maximal effect (EC50) turned out to be 9 nM in assay [1] (Homo sapiens, MCF7, 336 h) and 155 nM in assay [2].

Consider `CN1C(=O)CC(C)(C)c2cc(C(=O)C=Cc3ccc(C(=O)O)cc3)ccc21` [Compound 8f, 4-[3-(1-Methyl-4,4-dimethyl-2-oxo-1,2,3,4-tetrahydro-quinolin-6-yl)-3-oxo-propenyl]-benzoic acid], for which the “EC50 for Breast Cancer Cell Line (MCF-7)” value in assay [1] is “inactive; also recorded: Not Active”. Besides, in assay [2], the “EC50 for Prostate Cancer Cell Line (LNCaP)” value was “inactive; also recorded: Not Active”.

In turn, “4-[3-(1-Phenylethyl-4,4-dimethyl-2-oxo-1,2,3,4-tetrahydro-quinolin-6-yl)-3-oxo-propenyl]-benzoic acid [Compound 8e]” yielded an EC50 in assay [1] of 9 nM. In addition, in assay [2], the “EC50 for Prostate Cancer Cell Line (LNCaP)” value is “Not Active”.
